Results on 40 compounds are retold here after ChEMBL document CHEMBL1145177, “Further naphthylcombretastatins. An investigation on the role of the naphthalene moiety” (J Med Chem, 2005).

Type in all cases: functional, cell-based
One experiment relates to A549. Kind of experiment: Inhibitory concentration value against human A-549 tumor cell line.
In another experiment the test system is HT-29. The experiment can be described thus: Inhibitory concentration value against human colon adenocarcinoma HT-29 tumor cell line.
Another experiment relates to HCT-116. Kind of experiment: Inhibitory concentration value against human colon carcinoma H-116 tumor cell line.
A further experiment has as its system P388. The experiment can be described thus: Inhibitory concentration value against murine P-388 tumor cell line. The conditions noted are these: Mus musculus.
The next experiment relates to SK-MEL-28. Kind of experiment: Inhibitory concentration value against human MEL-28 tumor cell line.
A short description of experiment [1]: Inhibitory concentration value against human MEL-28 or human cancer HeLa tumor cell line.
In another experiment the test system is HL-60. The experiment can be described thus: Inhibitory concentration value against human colon carcinoma H-116 or human cancer HL-60 tumor cell line.

A word on the IC50: it is the concentration that gives 50% inhibition. For `FC(F)(F)Oc1cccc(/C=C\c2ccc3ccccc3c2)c1`, the IC50 in the experiment with A549, in the experiment with HT-29, in the experiment with HCT-116, in the experiment on P388 and with SK-MEL-28 was 3.5 µM in each case.
Turning to `CC(=O)Oc1ccc(/C=C/c2ccc3ccccc3c2)cc1`, the IC50 in the experiment on A549, in the experiment on HT-29, in the experiment with HCT-116, in the experiment on P388 and in the experiment on SK-MEL-28 was greater than 5 µM each time.
Consider `Cc1ccc(/C=C\c2ccc3ccccc3c2)cc1`, for which the IC50 with A549, in the experiment with HT-29, with HCT-116, in the experiment on P388 and in the experiment on SK-MEL-28 was greater than 5 µM in each case.
Take `COc1cc(/C=C\c2ccc3c(ccn3S(=O)(=O)c3ccccc3)c2)cc(OC)c1OC`: the IC50 (with A549; in the experiment with HT-29; in the experiment on P388; in experiment [1]; in the experiment with HL-60) was greater than 5 µM in each case.
With `FC(F)(F)c1ccc(/C=C\c2ccc3ccccc3c2)cc1`, the IC50 in the experiment on A549, in the experiment with HT-29, in the experiment with HCT-116, in the experiment with P388 and with SK-MEL-28 was greater than 5 µM each time.
With `CN(C)c1ccc(/C=C\c2ccc3ccccc3c2)cc1`, the IC50 with A549, with HT-29, in the experiment with HCT-116, in the experiment with P388 and in the experiment on SK-MEL-28 was 3.66 µM throughout.
`COCCOc1cc(/C=C\c2ccc3ccccc3c2)ccc1OC`: the IC50 in the experiment with A549, in the experiment on HT-29, with HCT-116, with P388 and in the experiment on SK-MEL-28 was 2.99 µM throughout.
As to `COc1cc(/C=C\c2cn(C)c3ccccc23)cc(OC)c1OC`, the IC50 (in the experiment with A549; with HT-29; with P388; in experiment [1]; with HL-60) was 3.09 µM in each case.
Turning to `C(=C/c1ccc2ccccc2c1)/c1ccoc1`, the IC50 in the experiment on A549, in the experiment with HT-29, in the experiment on HCT-116, in the experiment on P388 and in the experiment with SK-MEL-28 was greater than 5 µM throughout.
`C(=C\c1ccco1)/c1ccc2ccccc2c1`: the IC50 in the experiment with A549, with HT-29, in the experiment on HCT-116, with P388 and with SK-MEL-28 was greater than 5 µM each time.
For `C(=C\c1ccc2ccccc2c1)/c1ccc2c(c1)-c1ccccc1C2`, the IC50 with A549, in the experiment on HT-29, in the experiment on HCT-116, in the experiment on P388 and in the experiment on SK-MEL-28 was greater than 5 µM each time.
Regarding `Cc1ccc(/C=C/c2ccc3ccccc3c2)cc1`, the IC50 with A549, with HT-29, with HCT-116, in the experiment on P388 and in the experiment with SK-MEL-28 was greater than 5 µM each time.
Regarding `FC(F)(F)Oc1ccc(/C=C/c2ccc3ccccc3c2)cc1`, the 50% inhibitory concentration (IC50) with A549, in the experiment on HT-29, in the experiment on HCT-116, with P388 and in the experiment on SK-MEL-28 was greater than 5 µM in each case.
As to `COc1ccc(/C=C/c2ccc3ccccc3c2)cc1N`, the IC50 was 1.82 µM in the experiment with A549; greater than 5 µM in the experiment with HT-29; 1.82 µM in the experiment with HCT-116; greater than 5 µM with P388; greater than 5 µM in the experiment on SK-MEL-28.
For the compound `COCCOc1cc(/C=C/c2ccc3ccccc3c2)ccc1OC`, the IC50 in the experiment on A549 was 2.99 µM; in the experiment with HT-29, greater than 5 µM; with HCT-116, greater than 5 µM; in the experiment with P388, 2.99 µM; with SK-MEL-28, 2.99 µM.
On to `Cn1ccc2cc(/C=C\c3ccc4ccccc4c3)ccc21`, for which the IC50 with A549, in the experiment with HT-29, in the experiment with HCT-116, in the experiment on P388 and with SK-MEL-28 was greater than 5 µM in each case.
Take `COc1ccc(/C=C\c2ccc3ccccc3c2)cc1[N+](=O)[O-]`: the IC50 with A549 is greater than 20 µM; in the experiment on HT-29, 3.28 µM; in the experiment with HCT-116 it was greater than 20 µM; in the experiment on P388, greater than 20 µM; with SK-MEL-28, greater than 20 µM.
Take `Cn1ccc2cc(/C=C/c3ccc4ccccc4c3)ccc21`: the IC50 in the experiment with A549 was 3.53 µM; in the experiment with HT-29, greater than 5 µM; in the experiment on HCT-116, greater than 5 µM; with P388 it was greater than 5 µM; with SK-MEL-28, greater than 5 µM.
With `COc1cc(/C=C\c2ccc(N(C)C)c([N+](=O)[O-])c2)cc(OC)c1OC`, the IC50 (in the experiment on A549; in the experiment with HT-29; in the experiment with P388; in experiment [1]; in the experiment on HL-60) was greater than 5 µM each time.
Consider `O=S(=O)(c1ccccc1)n1ccc2cc(/C=C/c3ccc4ccccc4c3)ccc21`, for which the IC50 in the experiment on A549, in the experiment with HT-29, with HCT-116, with P388 and in the experiment with SK-MEL-28 was greater than 5 µM in each case.
On to `C(=C/c1ccc2[nH]ccc2c1)/c1ccc2ccccc2c1`, for which the IC50 with A549, in the experiment with HT-29, in the experiment with HCT-116, in the experiment with P388 and in the experiment on SK-MEL-28 was greater than 5 µM each time.
In the case of `COc1ccc(/C=C/c2ccc3ccccc3c2)cc1`, the IC50 in the experiment on A549, in the experiment on HT-29, in the experiment on HCT-116, in the experiment with P388 and with SK-MEL-28 was greater than 5 µM throughout.
For the compound `C(=C/c1cccc2ccccc12)/c1ccc2ccccc2c1`, the IC50 in the experiment with A549, in the experiment on HT-29, in the experiment with HCT-116, in the experiment with P388 and in the experiment on SK-MEL-28 was 3.57 µM each time.
For `COc1ccc(/C=C\c2ccc3ccccc3c2)cc1N`, the 50% inhibitory concentration (IC50) is greater than 20 µM in the experiment with A549; 1.82 µM in the experiment on HT-29; 0.36 µM in the experiment on HCT-116; 1.82 µM with P388; greater than 20 µM with SK-MEL-28.
As to `CN(C)c1ccc(/C=C/c2ccc3ccccc3c2)cc1`, the IC50 in the experiment on A549, in the experiment on HT-29, in the experiment on HCT-116, with P388 and with SK-MEL-28 was 3.66 µM throughout.
As to `Oc1ccc(/C=C/c2ccc3ccccc3c2)cc1`, the IC50 with A549, with HT-29, with HCT-116, in the experiment on P388 and with SK-MEL-28 was 4.06 µM each time.
With `COc1cc(/C=C\c2cn(C(C)=O)c3ccccc23)cc(OC)c1OC`, the IC50 (in the experiment with A549; in the experiment with HT-29; in the experiment with P388; in experiment [1]; in the experiment on HL-60) was 2.85 µM throughout.
`COc1ccc(/C=C/c2ccc3ccccc3c2)cc1F`: the IC50 with A549 was greater than 5 µM; in the experiment with HT-29, greater than 5 µM; with HCT-116 it was greater than 5 µM; with P388, 4.49 µM; in the experiment with SK-MEL-28 it was greater than 5 µM.
`CCN(CC)c1cc(/C=C/c2ccc3ccccc3c2)ccc1OC`: the IC50 in the experiment on A549, with HT-29, in the experiment on HCT-116, in the experiment on P388 and in the experiment on SK-MEL-28 was greater than 5 µM in each case.
Consider `FC(F)(F)c1ccc(/C=C/c2ccc3ccccc3c2)cc1`, for which the IC50 in the experiment with A549, in the experiment with HT-29, in the experiment with HCT-116, in the experiment with P388 and in the experiment on SK-MEL-28 was greater than 5 µM throughout.
As for `C(=C/c1ccc2ccccc2c1)/c1ccc2c(c1)-c1ccccc1C2`, the IC50 in the experiment on A549, in the experiment with HT-29, in the experiment with HCT-116, in the experiment on P388 and in the experiment on SK-MEL-28 was greater than 5 µM throughout.
For the compound `C(=C\c1ccc2ccccc2c1)/c1ccoc1`, the IC50 in the experiment with A549, in the experiment with HT-29, in the experiment with HCT-116, in the experiment with P388 and in the experiment with SK-MEL-28 was greater than 5 µM each time.
For the compound `COc1cc(/C=C\c2c[nH]c3ccccc23)cc(OC)c1OC`, the IC50 (in the experiment with A549; in the experiment on HT-29; in the experiment on P388; in experiment [1]; in the experiment on HL-60) was 3.23 µM throughout.
On to `COc1ccc(/C=C/c2ccc3ccccc3c2)cc1C(=O)CN`, for which the IC50 in the experiment with A549, in the experiment on HT-29, with HCT-116, in the experiment with P388 and with SK-MEL-28 was greater than 5 µM throughout.
Consider `O=S(=O)(c1ccccc1)n1ccc2cc(/C=C\c3ccc4ccccc4c3)ccc21`, for which the half-inhibitory concentration (IC50) in the experiment with A549, in the experiment on HT-29, in the experiment on HCT-116, with P388 and with SK-MEL-28 was greater than 5 µM throughout.
As to `COc1ccc(/C=C/c2ccc3ccccc3c2)cc1[N+](=O)[O-]`, the IC50 in the experiment on A549, in the experiment on HT-29, in the experiment with HCT-116, in the experiment with P388 and with SK-MEL-28 was greater than 5 µM each time.
As to `Cn1c2ccccc2c2cc(/C=C\c3ccc4ccccc4c3)ccc21`, the IC50 in the experiment on A549, with HT-29, with HCT-116, in the experiment with P388 and in the experiment on SK-MEL-28 was greater than 5 µM in each case.
Regarding `Cn1c2ccccc2c2cc(/C=C/c3ccc4ccccc4c3)ccc21`, the IC50 in the experiment on A549, in the experiment on HT-29, in the experiment with HCT-116, in the experiment on P388 and with SK-MEL-28 was greater than 5 µM in each case.
Take `C(=C/c1ccco1)/c1ccc2ccccc2c1`: the IC50 in the experiment with A549, in the experiment on HT-29, with HCT-116, in the experiment on P388 and with SK-MEL-28 was greater than 5 µM each time.
Take `COc1ccc(/C=C\c2ccc3ccccc3c2)cc1C(=O)CN`: the IC50 with A549 was 1.58 µM; in the experiment with HT-29 it was greater than 5 µM; in the experiment with HCT-116 it was greater than 5 µM; in the experiment with P388, greater than 5 µM; with SK-MEL-28, greater than 5 µM.
